The test system of one data set is HEK293T cells. Kind of data set: Cytotoxicity of SM60 in HEK293T cells (CellTiter-Blue). It counts as cell-based. Particulars: Homo sapiens, HEK-293T, 48 h, read-out: EC50 for inhibition of cell proliferation. As for the experimental part: HEK293T cells were seeded (2×10^4 cells/well) on a 96-well plate and grown in DMEM (supplemented with 10% heat-inactivated fetal bovine serum, 100 units/mL penicillin, 100 μg/mL streptomycin) for 48 h. Cells were then treated with DMSO (for control) or various concentrations of SM60. In a separate experiment, cells were briefly (3 min) irradiated with 365 nm UV following SM60 treatment and were allowed to grow at 37° C. for 48 h. Cell viability was measured using CellTiter-Blue® (Promega) by following the manufacturer's protocol. Equation 1,
Y=Bottom+(Top−Bottom)/[1+10^((log EC50−X)*Hillslope)] (1),
was used to fit a ten-point dose-response curve to determine the EC50 values for inhibition of cell-proliferation using GraphPad Prism 8.0. Top and Bottom are plateaus of the dose-response curve, X is the log of SM60-concentration, Hillslope is the slope factor or Hill slope. All the experiments were performed in triplicate.

A short description of data set [1]: Photodecaging to citrulline with 365 nm UV (HPLC, LC-MS, 1H NMR). Particulars: up to 5 min, PBS pH 7.4 with 2 mM DTT (SM70: 1:1 acetonitrile/PBS). The format is physicochemical. The text has this: FIG. 1. SM60, a photocaged-citrulline and its conversion to citrulline with 365 nm UV light. a, Conversion of peptidyl-arginine to peptidyl-citrulline by the PADs. b, Chemical structures of SM60 and SM70. c, Schematic representation of the incorporation of SM60 into proteins by an engineered LeuRS-tRNA^Leu pair and subsequent conversion to citrulline. d, Decaging of SM60 to citrulline with 365 nm UV irradiation. Left and right panels indicate the HPLC and ion chromatograms, showing the disappearance of SM60 and the formation of citrulline (Cit), respectively, with increasing UV exposure. Quantitative analyses of decaging and Cit formation are shown in the insets. Assay mixture: 1 mM SM60, 2 mM DTT, Phosphate-buffered saline pH 7.4.
FIG. 8. ^1H NMR spectrum of SM60 in D2O after UV (365 nm) exposure for 1, 2, 3, 4 and 5 min. […] Furthermore, an upfield shift was also observed for the ‘b’ protons upon the formation of citrulline. The multiplets at 3.6-3.7 and 2.6-2.7 ppm are due to DTT used in the assay. Assay condition: 1 mM SM60, 2 mM DTT, D2O.
FIG. 9. (A) Photodecaging of Fmoc-SM60 to produce Fmoc-Cit. (B) HPLC chromatograms indicating the disappearance of Fmoc-SM60 and the production of Fmoc-Cit with increasing UV exposure. […] Assay mixture: 0.5 mM Fmoc-SM60, 2 mM DTT, Phosphate-buffered saline pH 7.4. ESI-Mass spectra of Fmoc-SM60 (C) and Fmoc-Cit (D).
FIG. 10. […]

Data set [2] concerns EcLeuRS-tRNACUA^EcLeu pair. Kind of data set: EGFP-39-TAG reporter expression assay in HEK293T cells. Particulars: EcLeuRS mutant (M40I, Y499I, Y527A, H529G, T252A). The format is cell-based. The text has this: The first two pairs are restricted to structural analogs of phenylalanine and tryptophan, respectively, precluding their use to genetically encode SM60. However, both the archaeal pyrrolysyl (PylRS/tRNA^Pyl) and E. coli leucyl (EcLeuRS-tRNACUA^EcLeu) pairs have been engineered to charge UAAs structurally similar to SM60. […] This property has provided a facile route to rapidly expand the repertoire of genetically encoded UAAs without having to engineer new aaRS mutants for each distinct substrate. To explore if such a polyspecific aaRS can accept SM60 as a substrate, several existing PylRS and EcLeuRS mutants were screened using an EGFP-39-TAG expression assay in HEK293T cells in the presence of their cognate amber suppressor tRNA. […] Furthermore, UV irradiation of cells expressing EGFP-39-SM60 before lysis followed by protein purification and MS analysis afforded a single protein mass consistent with the complete deprotection and incorporation of citrulline at position 39 of EGFP (FIG. 2d).
HEK293T cells were maintained at 37° C. in a humidified incubator supplemented with 5% CO2. […]
EGFP fluorescence was analyzed 48 h after transfection. […] Lysate were clarified by centrifugation at 16,000×g for 10 min and 100 μL of supernatant was transferred to a clear-bottom 96-well plate for fluorescence measurement following previously described protocol. […]

Structures are written as SMILES. Read-outs that look alike come from different tables or passages of the source.

With `N[C@@H](CCCNC(=O)NCc1ccccc1[N+](=O)[O-])C(=O)O` [SM60], the EC50 in the data set with HEK293T cells (SM60 alone) was above 10 mM; with HEK293T cells (combination of SM60 and 365 nm UV (3 min)), 4.5 ± 0.2 mM. In addition, the “photodecaging / conversion to citrulline form” value in data set [1] is “quantitatively converted to Cit”. Moreover, in data set [2], the EGFP-39-TAG reporter expression result is recorded as “robust expression of the fluorescence reporter only when SM60 was supplemented in the medium”.

The values are drawn from patent publication US20240166594A1, “PHOTOCAGED CITRULLINE ANALOGS AND METHODS FOR SITE-SPECIFIC INCORPORATION OF CITRULLINE INTO PROTEINS” (University of Massachusetts, priority 2021, published 2024).
